One assay addresses T1, IP receptor (Homo sapiens, UniProt P43119).
T1 construct: host or cells: HEK293 (IP/HEK293 cell line)
The assay can be described thus: In-vitro agonist activity on IP receptor, FLIPR calcium test in IP/HEK293 cells. The settings on record: 10 concentrations, 10-fold dilutions. The format is cell-based. As for the experimental part: The specific method is as follows: The IP/HEK293 cell line was provided by WuXi AppTec (Shanghai) Co., Ltd. Well-grown IP/HEK293 cells were taken out from the incubator, the culture solution was aspirated, the cells were washed with D-PBS and digested with trypsin EDTA, and then added with a cell culture solution, and the cells were fully suspended by repeated pipetting. The cells were centrifuged at room temperature, the supernatant was aspirated, a culture medium was added, and the cells were resuspended by repeated pipetting with a sterile pipette. After counting living cells with Vi-CELL™, 20 µL (20,000 cells/well) of cell suspension was added to a 384-well cell culture plate and incubated in a 5% CO2 incubator at 37°C overnight. 1 mL of FLIPR test buffer was added with 77 mg of probenecid to prepare 250 mM probenecid solution. After thawing a bottle of 2XFluo-4 DirectTM (F10471), the bottle was added with 10 mL of FLIPR test buffer containing 500 uM AEBSF, and each 10 mL of Fluo-Direct was added with 0.2 mL of probenecid, with a final concentration of 2.5 mM. The mixture was vortexed and then allowed to stand in the dark for more than 5 minutes. Each compound was placed in a water bath at 25°C for 30 minutes. Then, these compounds were sequentially diluted 10-fold with Bravo, with a total of 10 concentrations, for testing. 750 nL of each compound was transferred to a 384-well compound plate with ECHO. Then, the compound plate was added with 30 µL of detection buffer. The 384-well cell culture plate was taken out from the incubator, the culture medium was discarded, and 20 µL of test buffer and 20 µL of 2X Fluo-4 DirectTM No-Wash loading buffer were added with a pipette. The cell culture plate was incubated in a 5% CO2 incubator at 37°C for 50 minutes and incubated at room temperature for 10 minutes. The cell culture plate, the compound plate and a tip box were placed into FLIPR, FLIPRTETRA test program was operated, 10 µL of reference compound and 10 µL of test compound were aspirated from the compound plate to the cell culture plate, fluorescence signals were read, and then data were processed. The data were analyzed by using Prism.

The target of a further assay is T2, EP2 receptor (Homo sapiens, UniProt P43116).
T2 construct: purchased Merck HTS185M
The assay can be described thus: Competitive binding to EP2 receptor against radiolabeled ligand 3H-PGE2. The settings on record: 8 concentrations from 10 µM, 10-fold dilutions. As for the experimental part: This experiment was carried out in 96-well plates to evaluate the binding affinity of the compounds of the present invention (Ia-1, Ia-2 and Ia-3) to the prostaglandin EP2 receptor by testing their ability of competitive binding to the EP2 receptor with the radiolabeled ligand ^3H-PGE2. Treprostinil was used as control. MicroBeta2 was used to detect the number of ^3H captured, and Prism software was used to analyze data. The EP2 film (Merck, Cat# HT[…], batch number 2121326) was diluted with a buffer (50 mM Hepes, PH=7.4, 5 mM MgCl2, 1 mM CaCl2, 0.5% BSA) to a final concentration of 75 μg/mL. ^3H-PGE2 was diluted to 15 nM. Test compound and control compound solutions with an initial concentration of 10 μM were prepared, and subjected to 10-fold continuous gradient dilution, with a total of 8 concentrations for testing. 5%DMSO was used as a solvent control group. 1 μL of each compound solution was added into a corresponding position in the 96-well test plate, and each well was added with 50 μL of the EP2 film (about 3.75 μg/well), and added with 50 μ L of ^3H-PGE2. Then, the well plate was sealed, and incubated with shaking at 300 rpm at room temperature for 2 hours. After finishing the incubation, GF/C plates were filtered with Perkin Elmer Filtermate Harvester, and then each plate was washed with cold eluent for 4 times, and dried at 50°C for 1 hour. After drying, bottoms of wells of the filter plate were sealed with a PerkinElmer Unifilter-96 backing tape. 50 μL of Perkin Elmer Microscint O was added. The top of the filter plate was sealed with Perkin Elmer TopSeal-A sealing film. The number of ^3H captured was detected by MicroBeta2.

The test system of the next assay is SD rats. The assay is described as follows: U46619-induced rat acute pulmonary arterial pressure rise model, low-dose airway nebulized administration (RVSP). The format is in vivo. The following applies: 1 hour after low-dose airway nebulized administration (about 3 µg/kg, equimolar). The text has this:
In this experiment, airway nebulized administration dosages of the compounds were about 1/7 of airway nebulized administration dosages in Experimental Example 5. By using a U46619-induced rat acute pulmonary arterial pressure rise model, antihypertensive effects of the compounds of the present invention after airway nebulized administration were further verified by reducing the administration dosages.
A model construction method was the same as that described in Experimental Example 5. In this experiment, dosages of groups were as follows: the dosage of compound C16-TR group was 3 µg/kg, and the dosages of equimolar compounds Ia-1, Ia-2 and Ia-3 were 3.0 µg/kg, 3.2 µg/kg and 3.3 µg/kg respectively.
The SD rats were anesthetized and then administered by airway nebulization, and then the basic right ventricular systolic pressure (RVSP) was measured by right cardiac catheterization. The SD rats were intravenously injected with U46619 (25 µg /kg) at 1 hour after airway nebulized administration of each compound, a peak value of RVSP rise after injection with U46619 was observed and recorded, and the inhibition percentage on the RVSP rise was calculated by comparing with the basic RVSP value. The number of experimental animals in each group was 1~2.

T2 sequence (P43116 whole entry): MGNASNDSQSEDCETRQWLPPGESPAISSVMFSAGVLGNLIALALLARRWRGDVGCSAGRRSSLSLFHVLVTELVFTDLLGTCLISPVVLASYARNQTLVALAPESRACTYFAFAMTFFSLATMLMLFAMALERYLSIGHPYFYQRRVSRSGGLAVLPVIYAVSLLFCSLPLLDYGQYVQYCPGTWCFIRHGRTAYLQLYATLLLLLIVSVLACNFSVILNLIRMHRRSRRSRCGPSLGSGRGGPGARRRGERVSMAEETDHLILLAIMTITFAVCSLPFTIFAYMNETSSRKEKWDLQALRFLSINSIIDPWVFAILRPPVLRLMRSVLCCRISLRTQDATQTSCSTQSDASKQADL
T1 sequence (P43119 whole entry): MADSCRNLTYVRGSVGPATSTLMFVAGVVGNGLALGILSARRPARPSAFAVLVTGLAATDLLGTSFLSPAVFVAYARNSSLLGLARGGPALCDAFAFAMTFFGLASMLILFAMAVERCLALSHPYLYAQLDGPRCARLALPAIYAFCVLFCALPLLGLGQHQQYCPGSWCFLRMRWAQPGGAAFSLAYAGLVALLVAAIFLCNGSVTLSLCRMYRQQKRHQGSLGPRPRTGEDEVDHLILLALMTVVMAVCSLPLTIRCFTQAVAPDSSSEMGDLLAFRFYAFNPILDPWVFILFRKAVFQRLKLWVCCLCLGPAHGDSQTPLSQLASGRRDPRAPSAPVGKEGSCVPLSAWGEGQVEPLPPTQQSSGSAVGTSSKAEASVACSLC

Turning to `CCCCC[C@H](O)CC[C@@H]1[C@H]2Cc3cccc(OCC(=O)OCCCCCCCCOCCCCc4ccccc4)c3C[C@H]2C[C@H]1O` [Compound Ia-2], the “agonist activity on IP receptor” value on IP receptor is listed as “no agonist activity”. In addition, the “binding to the EP2 receptor (competition with 3H-PGE2)” value at EP2 receptor was “no detectable binding”. For the same molecule, the “Inhibition percentage on RVSP rise (%) (mean)” value with SD rats is listed as 65.78%.
